Data on 1 compound can be found in article PMC4424558, “Antimicrobial and antioxidant flavonoids from the leaves of Oncoba spinosa Forssk. (Salicaceae)” (BMC Complementary and Alternative Medicine, 2015).

One assay relates to bacteria. As to the kind of experiment: Broth microdilution, bacterial strains (panel summary). The format is cell-based. The settings on record: range over the bacterial strains. As to the method: (§1) The studied microorganisms were both reference (from the American Type Culture Collection) and clinical (from Pasteur Institute Paris, France) strains of Enterobacter aerogenes, Escherichia coli, Klebsiella pneumoniae, Candida albicans, and Cryptococcus neoformans. Also, included were two clinical isolates of Candida parapsilosis and Staphylococcus aureus collected from Pasteur Centre (Yaoundé-Cameroon). The bacterial and fungal species were grown at 37°C and maintained on nutrient agar (NA, Conda, Madrid, Spain) and Sabouraud Dextrose Agar (SDA, Conda) slants respectively.
The inocula of yeasts and bacteria were prepared from overnight cultures by picking numerous colonies and suspending them in sterile saline (NaCl) solution (0.90%). Absorbance was read at 530 nm for yeasts or at 600 nm for bacteria and adjusted with the saline solution to match that of a 0.50 McFarland standard solution. From the prepared microbial solutions, other dilutions with saline solution were prepared to give a final concentration of 10^6 yeast cells/ml and 10^6 CFU/ml for bacteria. […]
MICs were determined by broth micro dilution. […] MICs were assessed visually after the corresponding incubation period and were taken as the lowest sample concentration at which there was no growth or virtually no growth. […]
(In general: Broth dilution looks for growth in wells or tubes with falling amounts of substance.)

For assay [1], the system named is Enterobacter aerogenes ATCC13048. As to the kind of experiment: Broth microdilution MIC/MBC against Enterobacter aerogenes ATCC13048. The class given is cell-based. As to the method: as §1
(§2) The inocula of yeasts and bacteria were prepared from overnight cultures by picking numerous colonies and suspending them in sterile saline (NaCl) solution (0.90%). Absorbance was read at 530 nm for yeasts or at 600 nm for bacteria and adjusted with the saline solution to match that of a 0.50 McFarland standard solution. From the prepared microbial solutions, other dilutions with saline solution were prepared to give a final concentration of 10^6 yeast cells/ml and 10^6 CFU/ml for bacteria.
(§3) The antimicrobial activity was investigated by determining the minimum inhibitory concentrations (MICs), minimum bactericidal concentrations (MBCs) and minimum fungicidal concentrations (MFCs).
(§4) MICs were determined by broth micro dilution. Stock solutions of the tested samples were prepared in 10% v/v aqueous dimethylsulfoxide (DMSO) solution (Fisher chemicals, Strasbourg, France) at concentration of 4096 μg/ml. This was two-fold serially diluted in Mueller-Hinton Broth (MHB) for bacteria and Sabouraud Dextrose Broth (SDB) for fungi to obtain a concentration range of 2048 to 0.25 μg/ml. For every experiment, a sterility check (10% aqueous DMSO and medium), negative control (10% aqueous DMSO, medium and inoculum) and positive control (10% aqueous DMSO, medium, inoculum and water-soluble antibiotics) were included. One hundred microliters of each concentration was introduced into a well (96-wells microplate) containing 90 μl of SDB or MHB and 10 μl of inoculum was added to obtain a final concentration range of 4096 to 0.125 μg/ml. The plates were covered with a sterile lid, and incubated on the shaker at 37°C for 24 h (bacteria) and 48 h (yeasts). MICs were assessed visually after the corresponding incubation period and were taken as the lowest sample concentration at which there was no growth or virtually no growth. The assay was repeated thrice.
(§5) The lowest concentration that yielded no growth after the sub-culturing was taken as the MBCs or MFCs. Chloramphenicol (Sigma-Aldrich, Steinheim, Germany) for bacteria and nystatin (Sigma-Aldrich, Steinheim, Germany) for yeasts were used as positive controls.

Assay [2] concerns Candida albicans ATCC 9002. As to the kind of experiment: Broth microdilution MIC/MFC against Candida albicans ATCC 9002. To be noted: ATCC9002, 37°C, 48 h, read-out: MIC. The class given is cell-based. As to the method:
as §1, §2, §3, §4, §5

Another assay relates to fungi. As to the kind of experiment: Broth microdilution, fungal strains (panel summary). The settings on record: fungal strains. The class given is cell-based. As to the method:
as §1, §2, §3
as §4, with “One hundred microliters of each concentration was introduced into a well (96-wells microplate) containing 90 μl of SDB or MHB and 10 μl of inoculum was added to obtain a final concentration range of 4096 to 0.125 μg/ml. The plates were covered with a sterile lid, and incubated on the shaker at 37°C for 24 h (bacteria) and 48 h (yeasts).” left out, “The assay was repeated thrice.” left out

Assay [3] is described as follows: DPPH free radical scavenging assay. The format is biochemical. To be noted: 30 min, room temperature, 517 nm. As for the experimental part: The free radical scavenging activity of the MeOH extract as well as some of its isolated compounds was evaluated according to described methods with slight modifications. Briefly, the test samples, prior dissolved in DMSO (SIGMA) beforehand, were mixed with a 20 mg/l 2,2-diphenyl-1-picryl-hydrazyl (DPPH) methanol solution, to give final concentrations of 10, 50, 100, 500 and 1000 μg/ml. After 30 min at room temperature, the absorbance values were measured at 517 nm and converted into percentage of antioxidant activity. L-ascorbic acid was used as a standard control. The percentage of decolouration of DPPH (%) was calculated as follows: %decolourationofDPPH=Absorbanceofcontrol−Absorbanceoftestsample)×100/Absorbanceofcontrol
The percentage of decolouration of DPPH (%) was plotted against the test sample. Also, the percentage of decolouration of DPPH was converted in probits. The probit values were plotted against the logarithmic values of concentrations of the test samples and a linear regression curve was established in order to calculate the EC50 (μg/ml), which is the amount of sample necessary to decrease by 50% the absorbance of DPPH [11]. All the analyses were carried out in triplicate.
A general note: DPPH is a stable violet radical that fades when it is reduced.

Assay [4] concerns Escherichia coli ATCC8739. As to the kind of experiment: Broth microdilution MIC/MBC against Escherichia coli ATCC8739. The class given is cell-based. As for the experimental part:
as §1, §2, §3, §4, §5

For a further assay, the system named is Staphylococcus aureus. The assay can be described thus: Broth microdilution MIC/MBC against Staphylococcus aureus. To be noted: Staphylococcus aureus clinical isolate. The format is cell-based. As for the experimental part: as §1, §2, §3, §4, §5
Assay [5] in a line: Trolox equivalent antioxidant capacity (TEAC) assay. To be noted: ABTS/laccase, 420 nm, 230 s; 20 μg/ml isolated compounds, 10-400 μg/ml MeOH extract; gallic acid equivalents. The format is biochemical. As for the experimental part: The TEAC test was done as previously described with slight modifications. In a quartz cuvette, to 950 μl acetate buffer (pH = 5.0, 100 mM), the following were added: 20 μl laccase (1 mM stock solution), 20 μl test sample, 10 μl ABTS (2,2′-azinobis(3-ethylbenzothiazoline-6-sulfonic acid)) (74 mM stock solution). The laccase were purified from Sclerotinia sclerotiorum according to the protocol described. The sample concentrations in the assay mixture were 400, 200, 100, 10 μg/ml for the MeOH extract and 20 μg/ml for the isolated compounds. The content of the generated ABTS^●+ radical was measured at 420 nm after 230 s reaction time and was converted to gallic acid equivalents by the use of a calibration curve (Pearson’s correlation coefficient: r = 0.998) constructed with 0, 4, 10, 14, 28, 56, 84 μM gallic acid standards rather than Trolox. Experiments were done in triplicate.

Assay [6] concerns bacterial and fungal species. As to the kind of experiment: Broth microdilution, all studied microorganisms (panel summary). The settings on record: out of 7 studied microorganisms. The class given is cell-based. As to the method: as §1, §2, §3, §4, §5
Assay [7] deals with Cryptococcus neoformans IP 90526. As to the kind of experiment: Broth microdilution MIC/MFC against Cryptococcus neoformans IP 90526. The class given is cell-based. The settings on record: IP90526, 37°C, 48 h, read-out: MIC. As for the experimental part:
as §1, §2, §3, §4, §5

The test system of assay [8] is Klebsiella pneumoniae ATCC11296. As to the kind of experiment: Broth microdilution MIC/MBC against Klebsiella pneumoniae ATCC11296. The class given is cell-based. As to the method:
as §1, §2, §3, §4, §5

A further assay has as its system Candida parapsilosis. As to the kind of experiment: Broth microdilution MIC/MFC against Candida parapsilosis. The format is cell-based. To be noted: Lodderomyces parapsilosis; Candida parapsilosis clinical isolate; 37°C, 48 h; read-out: MIC. As for the experimental part: as §1, §2, §3, §4, §5

Converted amounts (≈) assume the structure as drawn.

One may read the MBC as the lowest tested concentration that kills the bacteria rather than only halting them. Read a low MBC as greater bactericidal potency. As a reminder, the MIC is the lowest concentration that inhibits growth of the organism. In the case of `C[C@@H]1O[C@@H](OC[C@H]2O[C@@H](Oc3c(-c4ccc(O)c(O)c4)oc4cc(O)cc(O)c4c3=O)[C@H](O)[C@@H](O)[C@@H]2O)[C@H](O)[C@H](O)[C@H]1O` [Compound 5, quercetin 3-O-α-L-rhamnopyranosyl (1 → 6) β-D-glucopyranoside], the “MIC (range over bacteria)” value in the assay on bacteria lay within 8 to 64 µg/mL. In addition, the MBC/MIC in [1] is 1; in assay [4], 1; with Staphylococcus aureus, 2; in assay [8], 2. Moreover, the MBC in assay [1] (Klebsiella aerogenes) was 32 µg/mL (≈ 52.4 µM); in assay [4], 64 µg/mL (≈ 105 µM); in the assay with Staphylococcus aureus it was 128 µg/mL (≈ 210 µM); in [8], 16 µg/mL (≈ 26.2 µM). Further, the MIC is 32 µg/mL (≈ 52.4 µM) in assay [1] (Klebsiella aerogenes, 37°C, 24 h); above 256 µg/mL in assay [2]; 64 µg/mL (≈ 105 µM) in assay [4] (37°C, 24 h); 64 µg/mL (≈ 105 µM) against Staphylococcus aureus (37°C, 24 h); above 256 µg/mL in [7]; 8 µg/mL (≈ 13.1 µM) in assay [8] (37°C, 24 h). Further, in the assay with Candida parapsilosis, the MIC is above 256 µg/mL. For the same compound, in the assay on fungi, the “activity against fungal/yeast strains (in words)” value was “inactive”. The “EC50, concentration scavenging 50% of DPPH radical” value in assay [3] came out at 9.63 µg/mL. Moreover, in assay [5], the “Gallic acid equivalent antioxidant capacity (TEAC)” value is 78.35 µg/mL. Moreover, the “studied microorganisms on which inhibitory effects were noted” value in assay [6] is on record as 4/7.
